Three compounds from ChEMBL document CHEMBL4725222, “Advances in the Development of Phosphodiesterase-4 Inhibitors” (J Med Chem, 2020) can be followed below.

SMILES strings stand for the structures.

Assay [1] deals with 3',5'-cyclic-AMP phosphodiesterase 4B (Homo sapiens, UniProt Q07343). Kind of assay: Inhibition of PDE4B (unknown origin).
For assay [2], the target named is Mitogen-activated protein kinase 14 (Homo sapiens, UniProt Q16539). Kind of assay: Inhibition of P38 alpha MAPK (unknown origin).
Chain of Mitogen-activated protein kinase 14 (Q16539 whole entry): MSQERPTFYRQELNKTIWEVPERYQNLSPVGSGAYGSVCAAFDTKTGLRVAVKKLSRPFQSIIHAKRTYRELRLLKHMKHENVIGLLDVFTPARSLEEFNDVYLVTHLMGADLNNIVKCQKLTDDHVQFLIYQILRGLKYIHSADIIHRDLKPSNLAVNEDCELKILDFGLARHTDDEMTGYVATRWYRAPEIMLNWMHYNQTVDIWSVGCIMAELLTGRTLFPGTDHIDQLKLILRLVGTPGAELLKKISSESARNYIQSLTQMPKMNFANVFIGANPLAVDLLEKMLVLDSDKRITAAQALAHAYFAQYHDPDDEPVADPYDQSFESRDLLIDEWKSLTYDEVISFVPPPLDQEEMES
The target of assay [3] is Mitogen-activated protein kinase 10 (Homo sapiens, UniProt P53779). Kind of assay: Inhibition of JNK3 (unknown origin).
Chain of Mitogen-activated protein kinase 10 (P53779 whole entry): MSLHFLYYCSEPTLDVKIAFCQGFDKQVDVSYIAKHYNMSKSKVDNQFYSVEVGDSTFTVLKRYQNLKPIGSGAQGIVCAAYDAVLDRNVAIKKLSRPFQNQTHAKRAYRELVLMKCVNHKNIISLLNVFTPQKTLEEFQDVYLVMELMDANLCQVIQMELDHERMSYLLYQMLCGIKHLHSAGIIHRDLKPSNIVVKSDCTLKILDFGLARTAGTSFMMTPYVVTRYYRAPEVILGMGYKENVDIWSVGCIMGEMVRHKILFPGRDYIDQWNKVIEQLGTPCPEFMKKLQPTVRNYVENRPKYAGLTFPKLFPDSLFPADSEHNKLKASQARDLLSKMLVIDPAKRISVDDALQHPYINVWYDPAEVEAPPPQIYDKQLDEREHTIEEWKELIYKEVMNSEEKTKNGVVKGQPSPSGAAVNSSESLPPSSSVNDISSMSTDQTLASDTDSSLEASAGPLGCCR
Assay [4] addresses T1, Phosphodiesterase 4 (Homo sapiens, UniProt P27815+Q08499+Q07343+Q08493). Kind of assay: Inhibition of human PDE4 expressed in Saccharomyces cerevisiae preincubated for 30 mins followed by cAMP substrate addition.
For assay [5], the system named is Homo sapiens. Kind of assay: Inhibition of late allergic response in atopic asthmatic patient assessed as reduction in minimum FEV1 level at 87.5 ug administered once daily via inhalation for 7 days followed by allergen challenge relative to placebo. Format: functional. To be noted: dose 87.5 µg; time 7 day.
Assay [6] concerns Homo sapiens. Kind of assay: Inhibition of late allergic response in atopic asthmatic patient assessed as reduction in weighted mean FEV1 level at 87.5 ug administered once daily via inhalation for 7 days followed by allergen challenge relative to placebo. Format: functional. To be noted: dose 87.5 µg; time 7 day.
Assay [7] concerns Homo sapiens. Kind of assay: Inhibition of early allergic response in atopic asthmatic patient assessed as reduction in minimum FEV1 level at 87.5 ug administered once daily via inhalation for 7 days followed by allergen challenge relative to placebo. Format: functional. To be noted: dose 87.5 µg; time 7 day.
For assay [8], the system named is Homo sapiens. Kind of assay: Inhibition of early allergic response in atopic asthmatic patient assessed as reduction in weighted mean FEV1 level at 87.5 ug administered once daily via inhalation for 7 days followed by allergen challenge relative to placebo. Format: functional. To be noted: dose 87.5 µg; time 7 day.
In assay [9] the target is T1, Phosphodiesterase 4. Kind of assay: Inhibition of PDE4 in human U937 cell lysate using cAMP as substrate by LANCE assay. In kind it is subcellular. To be noted: u-937. (TR-FRET usually uses a lanthanide donor and a delayed reading to cut background.)
The target in assay [10] is Muscarinic acetylcholine receptor M3 (Homo sapiens, UniProt P20309). Kind of assay: Displacement of [3H]N -methylscopolamine from human muscarinic M3 receptor expressed in CHO-K1 cells incubated for 90 mins by scintillation counting method. Format: cell-based.
Chain of Muscarinic acetylcholine receptor M3 (P20309 whole entry): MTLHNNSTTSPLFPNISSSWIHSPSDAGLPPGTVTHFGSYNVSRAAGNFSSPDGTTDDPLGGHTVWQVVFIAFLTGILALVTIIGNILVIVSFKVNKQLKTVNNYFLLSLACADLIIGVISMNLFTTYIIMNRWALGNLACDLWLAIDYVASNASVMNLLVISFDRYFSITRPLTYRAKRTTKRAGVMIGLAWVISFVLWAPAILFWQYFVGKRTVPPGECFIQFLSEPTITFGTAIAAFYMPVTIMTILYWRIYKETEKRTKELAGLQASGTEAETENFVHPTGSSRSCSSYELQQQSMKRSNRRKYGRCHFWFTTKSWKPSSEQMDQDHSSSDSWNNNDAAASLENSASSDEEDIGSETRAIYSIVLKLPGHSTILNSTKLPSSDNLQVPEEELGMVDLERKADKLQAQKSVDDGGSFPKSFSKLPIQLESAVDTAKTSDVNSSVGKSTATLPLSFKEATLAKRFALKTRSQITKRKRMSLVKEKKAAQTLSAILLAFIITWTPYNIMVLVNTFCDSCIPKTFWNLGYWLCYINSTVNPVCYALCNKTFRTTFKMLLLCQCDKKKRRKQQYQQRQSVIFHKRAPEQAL

Chain of 3',5'-cyclic-AMP phosphodiesterase 4B (Q07343 whole entry): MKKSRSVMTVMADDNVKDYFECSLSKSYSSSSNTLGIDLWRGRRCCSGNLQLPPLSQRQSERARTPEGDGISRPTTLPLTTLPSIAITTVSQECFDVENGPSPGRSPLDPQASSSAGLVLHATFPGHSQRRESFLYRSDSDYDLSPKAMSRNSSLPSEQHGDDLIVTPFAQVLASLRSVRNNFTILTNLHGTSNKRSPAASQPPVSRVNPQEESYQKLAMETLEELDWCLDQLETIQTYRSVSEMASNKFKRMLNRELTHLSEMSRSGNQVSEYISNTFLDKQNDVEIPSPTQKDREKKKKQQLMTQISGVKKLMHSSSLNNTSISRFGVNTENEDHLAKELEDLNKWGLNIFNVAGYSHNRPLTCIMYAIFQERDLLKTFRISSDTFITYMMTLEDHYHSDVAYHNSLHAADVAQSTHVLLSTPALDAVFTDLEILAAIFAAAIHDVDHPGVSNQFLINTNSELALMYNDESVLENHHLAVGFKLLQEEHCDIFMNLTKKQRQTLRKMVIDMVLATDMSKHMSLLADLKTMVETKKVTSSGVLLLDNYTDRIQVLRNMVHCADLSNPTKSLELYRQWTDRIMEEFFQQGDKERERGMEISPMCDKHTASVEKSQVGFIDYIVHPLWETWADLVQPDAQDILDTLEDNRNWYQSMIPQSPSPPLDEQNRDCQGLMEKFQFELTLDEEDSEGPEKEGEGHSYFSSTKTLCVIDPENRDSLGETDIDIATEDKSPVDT

In the case of `CC(=O)Nc1ccc(-c2c(-c3ccc(F)cc3)nc([S+](C)[O-])n2C)cn1` (stereo not given), the figures for the concentration for half-maximal inhibition (IC50) in assay [1], in assay [2] and in assay [3] were 200 nM, 500 nM and 700 nM, respectively.
With `COc1cccc(Nc2c(C(N)=O)cnc3c(C)cc(S(=O)(=O)c4cccc(C(=O)N(C)C)c4)cc23)c1` [GSK-256066], the IC50 (usually the concentration that inhibits the measured activity by half) on Phosphodiesterase 4 [4] was found to be 0.0032 nM. Also, the “inhibition (INH)” value in the assay with Homo sapiens [5] was found to be 26.2%; in the assay with Homo sapiens [6], 34.3%; with Homo sapiens [7], 40.9%; in the assay with Homo sapiens [8], 57.2%.
In the case of `O=C(O[C@@H](Cc1c(Cl)c[n+]([O-])cc1Cl)c1ccc(OC(F)F)c(OCC2CC2)c1)C1CN(C(=O)c2ccc(COc3cccc(CN(C(=O)O[C@H]4CN5CCC4CC5)c4ccccc4)c3)cc2)C1`, the IC50 (against Phosphodiesterase 4 [9]; in assay [10]) was 100 nM in each case.
